The target in experiment [1] is T1, NMB receptor (Rattus norvegicus, UniProt P24053).
T1 sequence (P24053 1-390): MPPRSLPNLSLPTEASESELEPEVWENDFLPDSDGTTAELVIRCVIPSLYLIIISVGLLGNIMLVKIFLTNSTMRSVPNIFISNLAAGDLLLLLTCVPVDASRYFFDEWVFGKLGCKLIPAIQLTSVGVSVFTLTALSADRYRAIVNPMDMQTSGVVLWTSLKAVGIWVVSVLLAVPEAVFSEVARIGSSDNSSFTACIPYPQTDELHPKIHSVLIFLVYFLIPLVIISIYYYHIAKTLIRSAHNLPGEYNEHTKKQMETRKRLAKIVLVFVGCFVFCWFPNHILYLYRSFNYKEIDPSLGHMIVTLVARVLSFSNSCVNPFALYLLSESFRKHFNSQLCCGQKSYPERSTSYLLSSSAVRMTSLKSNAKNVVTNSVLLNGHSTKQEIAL
Briefly: NMB membrane receptor assay, 125I-NMB, rat olfactory bulb membranes. The experiment is classed as binding. Set-up: Membranes were prepared from rat olfactory bulb (NMB membrane receptor assay); from tissue; host or cells: rat olfactory bulb membranes. The following applies: Cheng method; unit inferred; read-out: affinity, 125I-NMB, Rat Olfactory bulb membranes (neuromedin B receptors).

Another experiment concerns the target T2, rat NMB receptor (Rattus norvegicus, UniProt P24053).
T2 construct: a full length NMB-preferring bombesin receptor clone generated from rat esophagus; expressed in transfected cells
T2 sequence (P24053 1-390): T1 sequence (P24053 1-390)
Briefly: Binding of 125I-[D-Tyr0]NMB to NMB-R transfected BALB 3T3 cells. Here is the method: (§1) Cells were passaged every 3-4 days at confluence, using 0.1% trypsin in 1 mM EDTA. Rat glioblastoma C-6 tumor cells were maintained similarly and were passaged weekly at confluence. Both cell lines were cultured at 37° C. in a 5% CO2 atmosphere. Rat AR 42J pancreatic acinar cells were cultured in Dulbecco's modified Eagle's medium (DMEM) without antibiotics and supplemented with 10% (vol/vol) fetal calf serum. The incubation atmosphere consisted of 10% CO2 -90% humidified air at 37° C.

For experiment [2], the target named is T3, GRP receptor (Rattus norvegicus, UniProt P52500). Briefly: GRP membrane receptor assay, 125I-[Tyr4]Bn, AR 42J cell membranes. Also noted: endogenous in cells; host or cells: rat AR 42J pancreatic acinar tumor cell membranes. The experiment is classed as binding. The following applies: read-out: affinity, 125I-[Tyr4]Bn, AR 42J Cell Membranes (GRP receptors); Cheng method; unit inferred.
T3 sequence (P52500 whole entry): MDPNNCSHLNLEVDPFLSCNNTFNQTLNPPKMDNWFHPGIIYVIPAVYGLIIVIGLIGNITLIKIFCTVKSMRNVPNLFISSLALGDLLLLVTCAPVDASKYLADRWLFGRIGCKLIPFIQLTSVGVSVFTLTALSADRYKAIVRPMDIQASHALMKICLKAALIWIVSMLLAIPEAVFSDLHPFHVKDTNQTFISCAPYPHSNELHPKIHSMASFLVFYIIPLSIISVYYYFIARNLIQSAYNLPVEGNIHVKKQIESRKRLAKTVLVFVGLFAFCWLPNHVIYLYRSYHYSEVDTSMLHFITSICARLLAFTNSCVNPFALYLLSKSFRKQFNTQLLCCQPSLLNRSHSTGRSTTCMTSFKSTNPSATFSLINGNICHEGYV

For the next experiment, the target named is T4, somatostatin receptors (Rattus norvegicus, UniProt P30680).
T4 construct: endogenous in cells; host or cells: rat AR 42J pancreatic acinar tumor cell membranes
T4 sequence (P30680 whole entry): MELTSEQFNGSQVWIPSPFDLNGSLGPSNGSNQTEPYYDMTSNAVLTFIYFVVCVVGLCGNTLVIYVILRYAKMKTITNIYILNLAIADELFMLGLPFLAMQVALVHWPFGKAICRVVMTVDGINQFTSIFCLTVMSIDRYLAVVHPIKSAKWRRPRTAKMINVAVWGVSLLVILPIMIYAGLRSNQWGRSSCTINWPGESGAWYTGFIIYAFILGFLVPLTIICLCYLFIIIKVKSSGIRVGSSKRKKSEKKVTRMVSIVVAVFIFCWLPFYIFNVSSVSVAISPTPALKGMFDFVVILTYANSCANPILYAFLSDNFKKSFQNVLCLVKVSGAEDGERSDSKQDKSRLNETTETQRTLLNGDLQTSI
Briefly: Somatostatin membrane receptor assay, 125I-[Tyr11]SS-14, AR 42J cell membranes. The experiment is classed as binding. The following applies: Cheng method; table prints no unit (b360 gives nM for a Table 4 value); read-out: affinity, 125I-[Tyr11]SS-14, AR 42J Cell Membranes (somatostatin receptors).

In a further experiment the target is T5, mu opioid receptors (Rattus norvegicus, UniProt P33535).
T5 construct: rat forebrain (TRH, mu and delta opioid membrane assays); from tissue; host or cells: rat forebrain membranes
T5 sequence (P33535 whole entry): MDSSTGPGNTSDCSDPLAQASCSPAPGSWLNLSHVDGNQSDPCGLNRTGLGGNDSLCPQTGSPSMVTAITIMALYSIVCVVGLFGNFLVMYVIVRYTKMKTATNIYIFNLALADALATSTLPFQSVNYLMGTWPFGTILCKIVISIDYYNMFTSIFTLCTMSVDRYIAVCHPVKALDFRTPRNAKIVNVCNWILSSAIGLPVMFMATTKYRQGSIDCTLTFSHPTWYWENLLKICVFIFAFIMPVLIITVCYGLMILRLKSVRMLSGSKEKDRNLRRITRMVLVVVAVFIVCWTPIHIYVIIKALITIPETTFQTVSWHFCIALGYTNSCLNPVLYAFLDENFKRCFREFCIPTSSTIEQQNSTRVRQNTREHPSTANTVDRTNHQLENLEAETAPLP
Briefly: Mu opioid membrane assay, [3H]DAGO, rat forebrain membranes. In kind it is binding. The following applies: Cheng method; unit inferred; read-out: affinity, [3H]DAGO, Rat Forebrain membranes (mu opioid receptors).

For experiment [3], the target named is T1, NMB receptor. Put plainly: [3H]inositol phosphates in NMB-R transfected cells (alone or NMB-stimulated). The experiment is classed as cell-based. Also noted: a full length NMB-preferring bombesin receptor clone generated from rat esophagus; expressed in transfected cells. Conditions: NMB-R transfected cells; for [3H]IP, analog Alone (10 μM): analog 10 μM alone, control 13 ± 3; for [3H]IP, analog Plus NMB (3 nM): analog 10 μM plus NMB 3 nM, NMB without analog 186 ± 58. The procedure:
as §1, with “As described previously [Wada, E., et al. Neuron 6:421 (1991)], BALB 3T3 cells expressing a stably transfected rat NMB receptor (NMB-R transfected cells) were obtained using calcium phosphate precipitation of a full length NMB-preferring bombesin receptor clone generated from rat esophagus and subcloned into a modified version of the pCD2 plasmid. Cells” for “Cells”
Measurement of phosphoinositides
Total phosphoinositides in C-6 cells and in NMB-R transfected cells were determined as described previously, with minor modifications [Benya, R. V. et al. Mol. Pharmacol. 42:1058 (1992); and Wang, L-H. et al. Biochem. Jo 286:641 (1992)]. Cells were grown to confluence in 24-well plates and then loaded with 100 μCi/ml myo-[2-^3 H]inositol in Dulbecco's modified essential medium with 2% fetal bovine serum at 37° C. for 48 hrs. Cells were washed and incubated in phosphoinositide buffer (standard buffer additionally containing 10 mM LiCl, 20 mM HEPES, 2 mM CaCl2, 2% BSA, and 1.2 mM MgSO4) for 15 min and then for 60 min at 37° C. with agonists at various concentrations or with 3 nM NMB (a half-maximal effective concentration) and possible antagonists at different concentrations. Reactions were halted using ice-cold 1% HCl in methanol, and the inositol phosphates (IP) were isolated as described previously [Bologna, M. et al. Cancer 63:1714 (1989); and Endo, T. et al. J. Endocrinolo 131:313 (1991)]. Briefly, after loading of the anion exchange column, free [^3 H]glycerophosphorylinositol was removed by washing with 5 mM disodium tetraborate in 60 mM sodium formate. Total [^3 H]inositol phosphates were then eluted using 100 mM formic acid in 1.0M ammonium formate as described previously [Benya, R. V. et al. Mol. Pharmacol. 42:1058 (1992); and Wang, L-H. et al. Biochem. J. 286:641 (1992 )].

Experiment [4] concerns the target T3, GRP receptor. Briefly: Amylase release from rat pancreatic acini (alone or Bn-stimulated). Set-up: from tissue; host or cells: dispersed pancreatic acini. The following applies: for Amylase Release, analog Alone (10 μM): analog 10 μM alone, control 4 ± 1; for Amylase Release, analog Plus Bn (0.3 nM): analog 10 μM plus Bn 0.3 nM, Bn without analog 15 ± 1; for IC50: read-out: IC50 Amylase Release, GRP Receptor, Rat Pancreatic Acini. In kind it is cell-based. The procedure: pancreatic acini or [^3 H]myo[2H]inositolloaded NMBR transfected cell
were incubated either with no additives, the somatostatin octapeptide
analog, Bn, or NMB, or a combination for 30 min at 37° C.. Amylase
release from pancreatic acini was expressed at the indicated percent of
the total cellular amylase released during the incubation. [^3 H]IP i
expressed in dpm's. To test for inhibitory effects, the effect of
somatostatin analog (10 μM) was determined on 0.3 nM Bnstimulated

Experiment [5] concerns the target T6, GRP receptors on rat pancreatic acini (Rattus norvegicus, UniProt P52500).
T6 construct: from tissue; host or cells: dispersed pancreatic acini
Put plainly: Binding of 125I-[Tyr4]bombesin to pancreatic acini. Conditions: read-out: Ki 125I-[Tyr4]Bn Binding, GRP Receptor, Rat Pancreatic Acini; Ki by Cheng method.
Description: Nonsaturable binding was<10% of total binding in all experiments.

Experiment [6] has as its target T7, NMB receptors on C-6 cells (Rattus norvegicus, UniProt P24053).
T7 construct: endogenous in cells; host or cells: rat glioblastoma C-6 cells
T7 sequence (P24053 1-390): T1 sequence (P24053 1-390)
Briefly: Binding of 125I-[D-Tyr0]NMB to C-6 glioblastoma cells. Conditions: Ki by Cheng method, read-out: Ki 125I-NMB Binding, NMB Receptor, C-6 Cells. Here is the method:
Binding of ^125 I-[D-Tyr^0 ]NMB to C-6 glioblastoma and NMB-R transfected cells
Binding studies using rat glioblastoma C-6 or NMB-R transfected cells were performed as described previously [Benya, R. V. et al. Mol. Pharmacol. 42:1058 (1992); and Wang, L-H. et al. Biochem. J. 286:641 (1992)] by suspending disaggregated cells in binding buffer, which was composed of standing buffer ([…], 7.7 mM KCl, 1.0 mM EGTA, 0.02% soybean trypsin inhibitor) additionally containing 50 mM HEPES, 1 mM MgCl2, 1.5 mM CaCl2, 2.2 mM KH2 PO4, 0,015% glutamine, and 0.2% BSA (w/v) (pH 7.4). Incubations contained 75 pM ^125 I-[D-Tyr^0 ]NMB and 15×10^6 C-6 cells/ml or 2×10^6 NMB-R transfected cells/ml, for 60 min at 22° C. Nonsaturable binding of ^125 I-[D-Tyr^0 ]NMB was the amount of radioactivity associated with C-6 cells or NMB-R transfected cells when the incubation mixture contained […] NMB. Nonsaturable binding was<15% of total binding in all experiments; all values are reported herein as saturable binding (i.e., total minus nonsaturable binding).

The mark [7] stands for this setting: 3 nM NMB, read-out: IC50 NMB-stimulated [3H]IP, NMB Receptor, Transfected Cells.
The mark [8] stands for this setting: NMB-R transfected BALB 3T3 cells, Ki by Cheng method, read-out: Ki 125I-NMB Binding, NMB Receptor, Transfected Cells.
[9] abbreviates: NMB-R transfected cells, value or range given for a group, read-out: K1, 125I-NMB binding to NMB-R transfected cells (text).

Where two headings read alike, the source gives them in different places. Where a SMILES comes first, the peptide text is derived from it. Bridges are numbered along the chain shown (N, C = ends). Where no end group is shown, it is not given here. [ ]: non-standard residue; d: D form. 2Nal = N[C@@H](Cc1ccc2ccccc2c1)C(=O)O; Lys(iPr) = CC(C)NCCCC[C@H](N)C(=O)O

T6 sequence (P52500 whole entry): as the sequence (P52500 whole entry) above

Regarding `CSCC[C@H](NC(=O)[C@H](Cc1ccccc1)NC(=O)[C@H](Cc1c[nH]cn1)NC(=O)CNC(=O)[C@@H](NC(=O)[C@H](C)NC(=O)[C@H](Cc1c[nH]c2ccccc12)NC(=O)[C@H](CC(C)C)NC(=O)[C@H](CC(N)=O)NC(=O)CN)[C@@H](C)O)C(N)=O` [NMB, neuromedin B, reference compound], the Ki at NMB receptor [1] was 0.0011 ± 0.0002 µM; on GRP receptor [2] it was 0.019 ± 0.001 µM; at somatostatin receptors, greater than 10000 nM; on mu opioid receptors, greater than 10 µM. Further, the Kd on rat NMB receptor (NMB-R transfected cells, read-out: Kd of NMB for NMB receptors without cyclo SS-octa) came to 0.0031 ± 0.0002 µM.
As to `CC(C)NCCCC[C@@H]1NC(=O)[C@@H](Cc2c[nH]c3ccccc23)NC(=O)[C@H](Cc2ccc(O)cc2)NC(=O)[C@@H](NC(=O)[C@H](N)Cc2ccccc2)CSSC[C@@H](C(=O)N[C@@H](Cc2ccc3ccccc3c2)C(N)=O)NC(=O)[C@H]([C@@H](C)O)NC1=O` [Analog #15, H2 -D-phe-Cys-Tyr-D-Trp-Lys(ipr)-Thr-Cys-Nal-NH2] (H-[dF]CY[dW][Lys(iPr)]TC[2Nal]-NH2; disulfide 2-7), the IC50 on NMB receptor [3] (setting [7]) is 9.9 ± 2.31 µM; at NMB receptor [3] (3 nM NMB, read-out: IC50 NMB-stimulated [3H]IP, Transfected Cells (values in μM)) it was 7.2 to 9.8 µM; at GRP receptor [4], greater than 10 µM. The “[3H]IP, analog Alone (10 μM)” value on NMB receptor [3] worked out at 11 ± 1 dym × 10^3. Moreover, the “[3H]IP, analog Plus NMB (3 nM)” value at NMB receptor [3] amounted to 67 ± 7 dym × 10^3. In addition, the Ki is 2.33 ± 0.397 µM at rat NMB receptor (setting [8]), 1.4 to 2.3 µM on rat NMB receptor (setting [9]), 38.1 ± 21.5 µM in experiment [5] and 1.14 ± 0.105 µM in [6]. In addition, the “fold by which cyclo SS-octa is more potent than the analog, 125I-NMB binding” value at rat NMB receptor (NMB-R transfected cells) was determined as 9 fold. For the same molecule, at GRP receptor [4], the “Amylase Release, analog Alone (10 μM)” value was 4 ± 2 % total. The “Amylase Release, analog Plus Bn (0.3 nM)” value at GRP receptor [4] was found to be 13 ± 2 % total.
Regarding `C[C@@H](O)[C@H](NC(=O)[C@@H]1CSSC[C@H](NC(=O)[C@H](N)Cc2ccc3ccccc3c2)C(=O)N[C@@H](Cc2ccc(O)cc2)C(=O)N[C@H](Cc2c[nH]c3ccccc23)C(=O)N[C@@H](CCCCN)C(=O)N[C@@H]([C@@H](C)O)C(=O)N1)C(N)=O` [Analog #6], the IC50 at NMB receptor [3] (setting [7]) and on GRP receptor [4] was greater than 10 µM in each case. Besides, at NMB receptor [3] (10 μM, 3 nM NMB), the “effect at 10 μM on NMB-stimulated increase in [3H]IP” value is given as “no effect”. Besides, on NMB receptor [3], the “[3H]IP, analog Alone (10 μM)” value is listed as 11 ± 2 dym × 10^3. Also, on NMB receptor [3], the “[3H]IP, analog Plus NMB (3 nM)” value was 188 ± 30 dym × 10^3. For the same molecule, the Ki on rat NMB receptor (setting [8]) was 16.4 ± 4.46 µM; on rat NMB receptor (setting [9]), 14 to 19 µM; in experiment [5], greater than 10 µM; in experiment [6], 8.29 ± 2.43 µM. Moreover, at rat NMB receptor (NMB-R transfected cells), the “fold by which cyclo SS-octa is more potent than the analog, 125I-NMB binding” value stood at 69 fold. Also, the “Amylase Release, analog Alone (10 μM)” value at GRP receptor [4] was 3 ± 1 % total. Moreover, the “Amylase Release, analog Plus Bn (0.3 nM)” value on GRP receptor [4] is 14 ± 2 % total.
As to “gastrin-releasing peptide (VPLPAGGGTVLTKMYPRGNHWAVGHLM; ends and bridges not checked; UniProt P07492 24-50, looked up) [GRP, mammalian bombesin-related peptide, from Peninsula Laboratories, reference compound]”, the Ki with NMB receptor [1] is 0.297 ± 0.015 µM; with somatostatin receptors, greater than 10000 nM; with mu opioid receptors it was greater than 10 µM.
